From paper PMC10795512 (Cell reports. Physical science, 2023)
Where no end group is shown, it is not given here.

Key:
E. coli ATCC 11775 = experiment: MIC, broth microdilution; format: cell-based, Escherichia coli; conditions: LB broth, 5 × 10^5 CFU mL^−1, 24 h at 37°C, OD 600 nm, three replicates
S. aureus ATCC 12600 = experiment: MIC, broth microdilution; format: cell-based, Staphylococcus aureus; conditions: LB broth, 5 × 10^5 CFU mL^−1, 24 h at 37°C, OD 600 nm, three replicates
P. aeruginosa PAO1 [1] = experiment: MIC, broth microdilution; format: cell-based, Pseudomonas aeruginosa; conditions: LB broth, 5 × 10^5 CFU mL^−1, 24 h at 37°C, OD 600 nm, three replicates
P. aeruginosa PA14 = experiment: MIC, broth microdilution; format: cell-based, Pseudomonas aeruginosa; conditions: LB broth, 5 × 10^5 CFU mL^−1, 24 h at 37°C, OD 600 nm, three replicates
[2] = system: human embryonic kidney (HEK) cells (ATCC HEK293T); experiment: Cytotoxicity, XTT assay; format: cell-based
[3] = system: primary human keratinocytes; experiment: Cytotoxicity, XTT assay; format: cell-based; conditions: for toxicity: at the highest concentration tested, 64 μmol L^−1, 24 h
P. aeruginosa PAO1 [4] = experiment: Synergy; format: cell-based, Pseudomonas aeruginosa; conditions: checkerboard; for FICI, combined with PMB: 2- to 0.03-fold MIC, 24 h at 37°C, three replicates; for FICI, WT1 and WT2 in combination: different concentrations
human erythrocytes = conditions: at a concentration of 10^−4 mol L^−1; cited from earlier work
mouse erythrocytes = conditions: at a concentration of 10^−4 mol L^−1; cited from earlier work
[5] = system: E. coli JW2703 (hypermutant strain) ΔmutS::kan; experiment: Resistance development assay; format: cell-based, Escherichia coli; conditions: over the same period (20 days)

| Substance | MIC (E. coli ATCC 11775) [µM] | MIC (S. aureus ATCC 12600) [µM] | MIC (P. aeruginosa PAO1 [1]) [µM] | MIC (P. aeruginosa PA14) [µM] | further results |
| --- | --- | --- | --- | --- | --- |
| LKLLAIVKKVLGAI-NH2 [A5–2] | 4 | 4 | – | – | – |
| LKLLGIVKKVLGKI-NH2 [K13–2] | 4 | – | 4 | 16 | toxicity ([2]; any of the concentrations tested (1 to 64 μmol L^−1), 24 h): no toxicity; toxicity [3]: low toxicity |
| LKLLGIVKKVLAAI-NH2 [A12–2] | 4 | 2 | – | – | – |
| AKLMGIVKKVLGAL-NH2 [A1–1] | 4 | 8 | 16 | 16 | – |
| LKLAGIVKKVLGAL-NH2 [A4–1] | 4 | 8 | – | – | – |
| LKLMGIVKKVLGAL-NH2 [WT1, reference compound] | 8 | 16 | 32 | 32 | FICI, combined with PMB (P. aeruginosa PAO1 [4]): 0.7; FICI, WT1 and WT2 in combination (P. aeruginosa PAO1 [4]): 0.7; hemolytic activity (human erythrocytes): hemolytic activity; hemolytic activity (mouse erythrocytes): hemolytic activity |
| LKLMGIVKKVLAAL-NH2 [A12–1] | 2 | 2 | – | – | – |
| LKLLGIVKKKLGAI-NH2 [K10–2] | 4 | 8 | 4 | 8 | toxicity ([2]; at 16 μmol L^−1, 24 h): no toxicity; cell viability remaining ([3]; at 8 μmol L^−1, 24 h): 92% |
| LKLLGIVKKVLGAI-NH2 [WT2, reference compound] | 16 | 32 | 32 | 64 | FICI, combined with PMB (P. aeruginosa PAO1 [4]): 0.5; FICI, WT1 and WT2 in combination (P. aeruginosa PAO1 [4]): 0.7; hemolytic activity (human erythrocytes): hemolytic activity; hemolytic activity (mouse erythrocytes): hemolytic activity |
| polymyxin B [PMB] | – | – | – | – | change of MIC during resistance assay [5]: did not vary significantly |
| LKLMGIVKKVLGKL-NH2 [K13–1] | 4 | 128 | 8 | 16 | FICI, combined with PMB (P. aeruginosa PAO1 [4]): 0.6; toxicity ([2]; at 4-fold MIC, 24 h): toxic; toxicity [3]: low toxicity |
| LKLMAIVKKVLGAL-NH2 [A5–1] | 4 | 4 | – | – | – |
